Consider one molecule from paper PMC9102502, “The Influence of Selected Antipsychotic Drugs on Biochemical Aspects of Alzheimer’s Disease” (International Journal of Molecular Sciences, 2022).

The structures appear in SMILES notation. Where two headings read alike, the source gives them in different places.

The target of data set [1] is T1, human erythrocyte acetylcholinesterase (Homo sapiens, UniProt P22303).
T1 construct: solution of hemolyzed erythrocytes diluted 400-fold; from tissue; host or cells: hemolyzed erythrocytes from blood of healthy human donors
As to the kind of experiment: AChE inhibition, modified Ellman's method. The class given is biochemical. As to conditions: for AChE reaction velocity: control 0.259 ± 0.013 A/min. (In general: DTNB colorimetry detects thiols as they appear.)

Data set [2] concerns the target T2, human plasma butyrylcholinesterase (Homo sapiens, UniProt P06276).
T2 construct: The solution of plasma 200-fold diluted with 0.9% NaCl; from tissue; host or cells: citrated plasma from blood of healthy human donors
As to the kind of experiment: BuChE inhibition, modified Ellman's method. In kind it is biochemical. As to conditions: experimental data, mean ± SD, n = 6–9.

Data set [3] deals with T3, recombinant human β-amyloid (1–42) (Homo sapiens, UniProt P05067).
T3 construct: recombinant human β-amyloid (1–42; ultrapure); purchased Sigma-Aldrich (St. Louis, MO, USA)
As to the kind of experiment: Beta-amyloid aggregation, Thioflavin T fluorescence. The class given is biochemical. As to conditions: 24 and 48 h; both tested concentrations. The method, boiled down: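 Aβ42 (DMSO stock, pre-warmed 15 min at 37 °C) at 20 μmol/L final incubated with antipsychotics at TPC and 1/2 × TPC, with 5 µmol/L ThT added. Fluorescence (Ex/Em 440/484 nm, room temperature) read at 10, 30, 60, 90 min, 24 and 48 h; peptide-only control set as 100% aggregation.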

For data set [4], the system named is human erythrocytes. As to the kind of experiment: RBC hemolysis, compounds alone. As to conditions: 2% human erythrocyte (RBC) suspension, read-out: increase of disintegration of the erythrocyte membrane (hemolysis). The class given is cell-based. On the procedure:
(§1) The blood samples were centrifuged (3000 rpm, 10 min, 20 °C, Micro 22 R centrifuge, Hettich Zentrifugen, Tuttlingen, Germany) to separate erythrocytes from the plasma and washed three times with 0.9% saline (NaCl). […] The erythrocytes were suspended in 0.9% saline. As control of basal hemolysis, erythrocytes were incubated with 0.9% NaCl. For total hemolysis control erythrocytes were incubated with 2.0% v/v Triton X-100. Incubation with Triton X-100 and K4[Fe(CN)6] (at concentration 50 g/L) was performed to control methemoglobin (MetHb) formation. Moreover, an antioxidant control containing ascorbic acid (AA) at a concentration of 10 µg/mL was prepared, while AAPH at a concentration of 50 mmol/L was an oxidizing agent. Antipsychotics at concentrations equaling their maximum therapeutic plasma concentrations (TPCmax), as well as 5-fold higher (5 × TPCmax) and 5-fold lower than TPCmax (1/5 × TPCmax), and the oxidizing agent AAPH at a concentration of 50 mmol/L, were added to 2% RBC suspension. Controls and tested samples were incubated at 37 °C. […] The percentage of hemolysis was calculated with the following formula:Hemolysis (%) = (Asample/Atotal hemolysis) × 100%(1) where Asample—absorbance of the test sample; Atotal hemolysis—the absorbance of the reference sample with 2% Triton X solution, corresponding to complete hemolysis.

The test system of data set [5] is human erythrocytes. As to the kind of experiment: Methemoglobin formation in RBC, compounds alone. The class given is cell-based. As to conditions: 250 μg/L. The protocol: as §1
In data set [6] the test system is human erythrocytes. Briefly: Methemoglobin formation in RBC with AAPH. As to conditions: 24 h, AAPH control 78.1%. The class given is cell-based. The protocol: The blood samples were centrifuged (3000 rpm, 10 min, 20 °C, Micro 22 R centrifuge, Hettich Zentrifugen, Tuttlingen, Germany) to separate erythrocytes from the plasma and washed three times with 0.9% saline (NaCl). […] The erythrocytes were suspended in 0.9% saline. As control of basal hemolysis, erythrocytes were incubated with 0.9% NaCl. For total hemolysis control erythrocytes were incubated with 2.0% v/v Triton X-100. Incubation with Triton X-100 and K4[Fe(CN)6] (at concentration 50 g/L) was performed to control methemoglobin (MetHb) formation. Moreover, an antioxidant control containing ascorbic acid (AA) at a concentration of 10 µg/mL was prepared, while AAPH at a concentration of 50 mmol/L was an oxidizing agent. Antipsychotics at concentrations equaling their maximum therapeutic plasma concentrations (TPCmax), as well as 5-fold higher (5 × TPCmax) and 5-fold lower than TPCmax (1/5 × TPCmax), and the oxidizing agent AAPH at a concentration of 50 mmol/L, were added to 2% RBC suspension. Controls and tested samples were incubated at 37 °C. […] For each measurement, 0.5 mL samples were taken from incubated Eppendorf tubes and centrifuged (3000 rpm, 10 min). […] The percentage of hemolysis was calculated with the following formula:Hemolysis (%) = (Asample/Atotal hemolysis) × 100%(1) where Asample—absorbance of the test sample; Atotal hemolysis—the absorbance of the reference sample with 2% Triton X solution, corresponding to complete hemolysis.

A further data set deals with astrocytes. As to the kind of experiment: WST-1 viability under AAPH-induced oxidative stress, astrocytes. As to conditions: benperidol 5 and 10 μg/L, penfluridol 12.5 μg/L, pimozide 15 μg/L, promazine 25 and 50 μg/L. The class given is cell-based, human. The method, boiled down: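 HUVEC and astrocytes grown to confluence, given antipsychotics at ½ × TPCmax and TPCmax for 1 h, then AAPH (17.5 mmol/L HUVEC; 15.0 mmol/L astrocytes) for 24 h at 37 °C; AA 10 μg/mL as antioxidant control. WST-1 read at 450 nm after 90 min (HUVEC) or 60 min (astrocytes); viability as % of control.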

The next data set addresses BuChE (Homo sapiens, UniProt P06276). As to the kind of experiment: Kinetic parameters of enzymatic reaction (Hanes–Woolf), BuChE. In kind it is biochemical. Also noted: The solution of plasma 200-fold diluted with 0.9% NaCl; from tissue; host or cells: citrated plasma from blood of healthy human donors. The protocol: Kinetic parameters were obtained on the basis of three individual experiments carried out on different biological materials. For this purpose, various concentrations of substrates (ATC and BTC) were used in experiments. The type of inhibition and kinetic parameters of enzymatic reactions were obtained by linear regression using the Hanes–Woolf equations.
AChE SI (selectivity index) was calculated by using the following formula: SI = IC50 of BuChE/IC50 of AChE. However, BuChE SI was defined as IC50 of AChE/IC50 of BuChE. Maximal velocity (Vmax) and the Michaelis constant (Km) were calculated with the use of linear regression—according to the Hanes–Woolf plot.

T1 sequence (P22303 32-617 isoform P22303-2 limits assumed): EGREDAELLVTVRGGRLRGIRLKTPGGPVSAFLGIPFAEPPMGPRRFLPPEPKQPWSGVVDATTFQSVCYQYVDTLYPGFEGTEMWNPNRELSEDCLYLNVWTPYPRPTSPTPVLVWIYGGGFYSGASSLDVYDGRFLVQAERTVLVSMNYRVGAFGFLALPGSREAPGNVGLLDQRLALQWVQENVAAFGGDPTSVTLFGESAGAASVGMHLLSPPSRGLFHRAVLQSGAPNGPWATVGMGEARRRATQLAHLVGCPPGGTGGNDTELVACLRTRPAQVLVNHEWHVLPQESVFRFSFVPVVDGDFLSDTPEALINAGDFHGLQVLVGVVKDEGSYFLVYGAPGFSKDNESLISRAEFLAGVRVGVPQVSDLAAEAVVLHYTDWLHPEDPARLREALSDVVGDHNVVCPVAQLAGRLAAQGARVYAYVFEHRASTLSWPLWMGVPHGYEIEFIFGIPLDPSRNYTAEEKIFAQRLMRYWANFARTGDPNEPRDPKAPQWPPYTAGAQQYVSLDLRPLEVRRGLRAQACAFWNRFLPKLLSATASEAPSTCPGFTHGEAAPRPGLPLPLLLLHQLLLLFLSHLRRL
Chain of BuChE (P06276 29-602): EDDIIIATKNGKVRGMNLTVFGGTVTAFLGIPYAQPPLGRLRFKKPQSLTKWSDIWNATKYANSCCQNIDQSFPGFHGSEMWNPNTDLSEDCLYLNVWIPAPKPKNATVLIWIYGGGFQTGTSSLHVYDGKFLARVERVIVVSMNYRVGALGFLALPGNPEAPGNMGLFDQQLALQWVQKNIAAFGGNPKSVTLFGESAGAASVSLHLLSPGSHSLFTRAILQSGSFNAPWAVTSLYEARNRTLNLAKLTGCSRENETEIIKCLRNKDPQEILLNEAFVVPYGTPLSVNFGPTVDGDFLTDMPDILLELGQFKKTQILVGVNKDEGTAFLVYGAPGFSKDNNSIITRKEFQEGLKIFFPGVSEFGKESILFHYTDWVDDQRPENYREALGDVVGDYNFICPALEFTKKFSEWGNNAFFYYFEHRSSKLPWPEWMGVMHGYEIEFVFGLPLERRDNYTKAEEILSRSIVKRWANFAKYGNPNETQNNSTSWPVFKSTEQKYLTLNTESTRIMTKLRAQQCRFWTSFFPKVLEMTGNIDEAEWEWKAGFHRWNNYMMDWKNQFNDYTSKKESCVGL
T2 sequence (P06276 29-602): as above
T3 sequence (P05067 672-713 limits assumed): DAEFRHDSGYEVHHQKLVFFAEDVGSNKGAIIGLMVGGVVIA

What is called IC50 is the concentration needed to halve the response being measured. Regarding `CN(C)CCCN1c2ccccc2Sc2ccccc21` [Promazine, promazine], the AChE reaction velocity amounted to 0.245 ± 0.015 A/min in data set [1] (100 µg/L) and 0.232 ± 0.016 A/min in data set [1] (200 µg/L). Besides, the IC50 was greater than 2 µM in data set [1] (theoretical values calculated on the basis of extrapolated plots), 0.186 µM in data set [2] (IC50 BuChE) and 0.19 ± 0.02 µM in data set [2] (read-out: IC50 BuChE). For the same molecule, the “effect on Aβ aggregation after a longer incubation time” value in data set [3] is recorded as “substantially inhibit”. Further, the hemolysis at 5 h, 250 μg/L in the data set with human erythrocytes [4] (5 h of incubation) is greater than 45%. Further, in the data set on human erythrocytes [4] (24 h of incubation), the hemolysis at 24 h, 250 μg/L is greater than 59%. Besides, the values for the formation of methemoglobin in the data set with human erythrocytes [5] (5 h of incubation) and in the data set with human erythrocytes [5] (24 h of incubation) were 39% and 64%, respectively. Also, the “methemoglobin formation with AAPH” value in the data set with human erythrocytes [6] (10 μg/L) was found to be 60.7%; with human erythrocytes [6] (50 μg/L), 54.5%. Further, the “astrocyte viability compared with the control (pure AAPH)” value with astrocytes is on record as “statistically significant increase”. The “Vmax(i) BuChE” value on BuChE (compound at its IC50) was determined as 0.144 ± 0.036 A/min; at BuChE (compound at ½ IC50), 0.192 ± 0.059 A/min. At BuChE (from Km(i), Vmax(i) vs Km, Vmax, mixed inhibition), the “type of inhibition of BuChE” value is listed as “same type of inhibition”.
